Measured values as given in US20260132140A1, “IMIDAZOLYL-AMINO-PYRAZINE-CARBONITRILS AS CHK-1 INHIBITORS” (BenevolentAI Bio Limited, priority 2022, published 2026).

Experiments:
human Chk1 kinase = biological target: T1, human Chk1 kinase (Homo sapiens, UniProt O14757); assay: biochemical
T1 sequence (O14757 1-476): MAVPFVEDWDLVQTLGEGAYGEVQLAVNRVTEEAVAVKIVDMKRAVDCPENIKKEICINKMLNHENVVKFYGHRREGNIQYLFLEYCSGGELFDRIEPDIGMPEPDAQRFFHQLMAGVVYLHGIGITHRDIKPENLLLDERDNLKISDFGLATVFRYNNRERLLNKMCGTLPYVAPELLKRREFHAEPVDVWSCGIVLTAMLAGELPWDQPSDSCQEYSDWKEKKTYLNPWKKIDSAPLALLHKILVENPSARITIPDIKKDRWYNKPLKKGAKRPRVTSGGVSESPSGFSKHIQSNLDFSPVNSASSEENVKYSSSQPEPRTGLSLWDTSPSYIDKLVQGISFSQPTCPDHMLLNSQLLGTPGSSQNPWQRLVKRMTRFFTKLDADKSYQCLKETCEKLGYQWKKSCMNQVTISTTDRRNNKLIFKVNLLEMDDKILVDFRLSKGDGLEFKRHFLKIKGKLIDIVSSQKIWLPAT

human Chk2 kinase = human Chk2 kinase (Homo sapiens, UniProt O96017); assay: biochemical
human Chk2 kinase, sequence (O96017 whole entry): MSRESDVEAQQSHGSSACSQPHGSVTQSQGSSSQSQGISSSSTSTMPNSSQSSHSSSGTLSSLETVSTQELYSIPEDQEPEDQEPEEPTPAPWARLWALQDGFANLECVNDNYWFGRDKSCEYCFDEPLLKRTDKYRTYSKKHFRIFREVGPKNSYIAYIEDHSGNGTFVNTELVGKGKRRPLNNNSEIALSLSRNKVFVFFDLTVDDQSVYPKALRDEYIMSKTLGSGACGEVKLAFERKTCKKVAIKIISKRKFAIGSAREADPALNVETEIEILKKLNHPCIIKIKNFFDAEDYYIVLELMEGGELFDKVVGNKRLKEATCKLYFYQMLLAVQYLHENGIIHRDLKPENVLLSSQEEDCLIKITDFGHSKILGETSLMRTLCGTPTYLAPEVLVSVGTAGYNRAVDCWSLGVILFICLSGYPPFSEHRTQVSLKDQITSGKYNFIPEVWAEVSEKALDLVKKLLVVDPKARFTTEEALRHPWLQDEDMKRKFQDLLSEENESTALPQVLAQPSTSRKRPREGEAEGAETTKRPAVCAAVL

| Structure (SMILES) | IC50 (human Chk1 kinase) [nM] | IC50 (human Chk2 kinase) [nM] |
| --- | --- | --- |
| N#Cc1cnc(Nc2cn(-c3ccc(N4C[C@H]5CN[C@H]5C4)cc3)cn2)cn1 [Example 161, 5-((1-(4-((1R,5R)-3,6-Diazabicyclo[3.2.0]heptan-3-yl)phenyl)-1H-imidazol-4-yl)amino)pyrazine-2-carbonitrile] | 10 to 31.6 | 1000 to 10000 |
| CN1CCC2(CCN2c2ccc(-n3cnc(Nc4cnc(C#N)cn4)c3)cc2)C1 (single isomer, unassigned) [Example 119, 5-((1-(4-(6-Methyl-1,6-diazaspiro[3.4]octan-1-yl)phenyl)-1H-imidazol-4-yl)amino)pyrazine-2-carbonitrile] | 10 to 31.6 | 10000 to 100000 |
| CCN(CC)C1(c2ccc(-n3cnc(Nc4cnc(C#N)cn4)c3)cc2)CC1 [Example 179, 5-((1-(4-(1-(Diethylamino)cyclopropyl)phenyl)-1H-imidazol-4-yl)amino)pyrazine-2-carbonitrile] | 100 to 316 | > 100000 |
| Cc1cc(CN2CC[C@@H](F)C2)cc(C(F)(F)F)c1-n1cnc(Nc2cnc(C#N)cn2)c1 [Example 54, (R)-5-((1-(4-((3-Fluoropyrrolidin-1-yl)methyl)-2-methyl-6-(trifluoromethyl)phenyl)-1H-imidazol-4-yl)amino)pyrazine-2-carbonitrile] | 100 to 316 | > 100000 |
| CN1CCC(N(C)c2cccc(-n3cnc(Nc4cnc(C#N)cn4)c3)c2)CC1 [Example 43, 5-((1-(3-(Methyl(1-methylpiperidin-4-yl)amino)phenyl)-1H-imidazol-4-yl)amino)pyrazine-2-carbonitrile] | 31.6 to 100 | 10000 to 100000 |
| CC1(C)CN(C2CCN(c3ccc(-n4cnc(Nc5cnc(C#N)cn5)c4)cc3)C2)C1 (single isomer, unassigned) [Example 123, 5-((1-(4-(3-(3,3-Dimethylazetidin-1-yl)pyrrolidin-1-yl)phenyl)-1H-imidazol-4-yl)amino)pyrazine-2-carbonitrile] | 10 to 31.6 | > 100000 |
| N#Cc1cnc(Nc2cn(-c3ccc(N4CC[C@@H](NCCC(F)(F)F)C4)cn3)cn2)cn1 [Example 93, (R)-5-((1-(5-(3-((3,3,3-Trifluoropropyl)amino)pyrrolidin-1-yl)pyridin-2-yl)-1H-imidazol-4-yl)amino)pyrazine-2-carbonitrile] | 10 to 31.6 | > 100000 |
| N#Cc1cnc(Nc2cn(-c3ccc(N4CCC(N5CC6(CCC6)C5)C4)cc3)cn2)cn1 (single isomer, unassigned) [Example 131, 5-((1-(4-(3-(2-Azaspiro[3.3]heptan-2-yl)pyrrolidin-1-yl)phenyl)-1H-imidazol-4-yl)amino)pyrazine-2-carbonitrile] | 10 to 31.6 | 1000 to 10000 |
| CC1(C)CCN1C1CCN(c2ccc(-n3cnc(Nc4cnc(C#N)cn4)c3)cc2)C1 (single isomer, unassigned) [Example 139, 5-((1-(4-(3-(2,2-Dimethylazetidin-1-yl)pyrrolidin-1-yl)phenyl)-1H-imidazol-4-yl)amino)pyrazine-2-carbonitrile] | 31.6 to 100 | > 100000 |
| N#Cc1cnc(Nc2cn(-c3ccc(N4CC[C@@H](N5CCC5)C4)cn3)cn2)cn1 [Example 102, (R)-5-((1-(5-(3-(Azetidin-1-yl)pyrrolidin-1-yl)pyridin-2-yl)-1H-imidazol-4-yl)amino)pyrazine-2-carbonitrile] | 10 to 31.6 | 1000 to 10000 |
| CC(C)N1CCN(c2ccc(-n3cnc(Nc4cnc(C#N)cn4)c3)cc2)CC1 [Example 186, 5-((1-(4-(4-Isopropylpiperazin-1-yl)phenyl)-1H-imidazol-4-yl)amino)pyrazine-2-carbonitrile] | 100 to 316 | > 100000 |
| N#Cc1cnc(Nc2cn(-c3ccc(N4CC[C@@H](N5CCOCC5)C4)cc3)cn2)cn1 [Example 72, (R)-5-((1-(4-(3-Morpholinopyrrolidin-1-yl)phenyl)-1H-imidazol-4-yl)amino)pyrazine-2-carbonitrile] | 10 to 31.6 | 10000 to 100000 |
| CN(C)CC1CN(c2cccc(-n3cnc(Nc4cnc(C#N)cn4)c3)c2)CCO1 (single isomer, unassigned) [Example 107, 5-((1-(3-(2-((Dimethylamino)methyl)morpholino)phenyl)-1H-imidazol-4-yl)amino)pyrazine-2-carbonitrile] | 31.6 to 100 | 10000 to 100000 |
| CN(C)[C@@H]1CCN(c2ccc(-n3cnc(Nc4cnc(C#N)cn4)c3)nc2C(F)(F)F)C1 [Example 77, (R)-5-((1-(5-(3-(Dimethylamino)pyrrolidin-1-yl)-6-(trifluoromethyl)pyridin-2-yl)-1H-imidazol-4-yl)amino)pyrazine-2-carbonitrile] | 10 to 31.6 | 10000 to 100000 |
| C[C@H]1CCN1C1CCN(c2ccc(-n3cnc(Nc4cnc(C#N)cn4)c3)cc2)C1 (single isomer, unassigned) [Example 137] | 10 to 31.6 | > 100000 |
| N#Cc1cnc(Nc2cn(-c3ccc(CN4CCOCC4)cc3)cn2)cn1 [Example 142, 5-((1-(4-(Morpholinomethyl)phenyl)-1H-imidazol-4-yl)amino)pyrazine-2-carbonitrile] | 100 to 316 | 10000 to 100000 |
| CN(C)[C@@H]1CCN(c2cccc(-n3cnc(Nc4cnc(C#N)cn4)c3)c2)C1 [Example 38, (R)-5-((1-(3-(3-(Dimethylamino)pyrrolidin-1-yl)phenyl)-1H-imidazol-4-yl)amino)pyrazine-2-carbonitrile] | 10 to 31.6 | 10000 to 100000 |
| N#Cc1cnc(Nc2cn(-c3ccc(N4CCN(C5COC5)CC4)cc3)cn2)cn1 [Example 182, 5-((1-(4-(4-(Oxetan-3-yl)piperazin-1-yl)phenyl)-1H-imidazol-4-yl)amino)pyrazine-2-carbonitrile] | 31.6 to 100 | 10000 to 100000 |
| C[C@@H]1CCN1C1CCN(c2ccc(-n3cnc(Nc4cnc(C#N)cn4)c3)cc2)C1 (single isomer, unassigned) [Example 136] | 31.6 to 100 | > 100000 |
| CN1CC[C@@H](N(C)c2ccc(-n3cnc(Nc4cnc(C#N)cn4)c3)cc2)C1 [Example 94, (R)-5-((1-(4-(Methyl(1-methylpyrrolidin-3-yl)amino)phenyl)-1H-imidazol-4-yl)amino)pyrazine-2-carbonitrile] | 31.6 to 100 | 10000 to 100000 |

Second part, the compound after the results:

| IC50 (human Chk1 kinase) [nM] | IC50 (human Chk2 kinase) [nM] | Structure (SMILES) |
| --- | --- | --- |
| 10 to 31.6 | 10000 to 100000 | CN1CCC2(CC1)CCN(c1cccc(-n3cnc(Nc4cnc(C#N)cn4)c3)c1)C2 [Example 39, 5-((1-(3-(8-Methyl-2,8-diazaspiro[4.5]decan-2-yl)phenyl)-1H-imidazol-4-yl)amino)pyrazine-2-carbonitrile] |
| < 10 | 1000 to 10000 | CN[C@H]1CN(c2ccc(-n3cnc(Nc4cnc(C#N)cn4)c3)c(OC)c2)C[C@H]1F [Example 164, 5-((1-(4-((3R,4S)-3-Fluoro-4-(methylamino)pyrrolidin-1-yl)-2-methoxyphenyl)-1H-imidazol-4-yl)amino)pyrazine-2-carbonitrile] |
| 31.6 to 100 | 10000 to 100000 | COc1cc(CN2CCC(F)(F)CC2)ccc1-n1cnc(Nc2cnc(C#N)cn2)c1 [Example 172, 5-((1-(4-((4,4-Difluoropiperidin-1-yl)methyl)-2-methoxyphenyl)-1H-imidazol-4-yl)amino)pyrazine-2-carbonitrile] |
| 10 to 31.6 | 10000 to 100000 | Cc1cc(-n2cnc(Nc3cnc(C#N)cn3)c2)ccc1N1CCN(C)CC1 [Example 28, 5-((1-(3-Methyl-4-(4-methylpiperazin-1-yl)phenyl)-1H-imidazol-4-yl)amino)pyrazine-2-carbonitrile] |
| 31.6 to 100 | 10000 to 100000 | COc1cc(N(C)CC2CCN(C)CC2)ccc1-n1cnc(Nc2cnc(C#N)cn2)c1 [Example 36, 5-((1-(2-Methoxy-4-(methyl((1-methylpiperidin-4-yl)methyl)amino)phenyl)-1H-imidazol-4-yl)amino)pyrazine-2-carbonitrile] |
| 31.6 to 100 | 10000 to 100000 | CN1C[C@@H]2CN(c3ccc(-n4cnc(Nc5cnc(C#N)cn5)c4)c(F)c3)[C@@H]2C1 [Example 80, 5-((1-(2-Fluoro-4-((1R,5S)-3-methyl-3,6-diazabicyclo[3.2.0]heptan-6-yl)phenyl)-1H-imidazol-4-yl)amino)pyrazine-2-carbonitrile] |
| 10 to 31.6 | 10000 to 100000 | COc1cc(N2CC3(CN(C)C3)C2)ccc1-n1cnc(Nc2cnc(C#N)cn2)c1 [Example 46, 5-((1-(2-Methoxy-4-(6-methyl-2,6-diazaspiro[3.3]heptan-2-yl)phenyl)-1H-imidazol-4-yl)amino)pyrazine-2-carbonitrile] |
| 10 to 31.6 | 10000 to 100000 | COc1cc(CN2CCCC2)ccc1-n1cnc(Nc2cnc(C#N)cn2)c1 [Example 171, 5-((1-(2-Methoxy-4-(pyrrolidin-1-ylmethyl)phenyl)-1H-imidazol-4-yl)amino)pyrazine-2-carbonitrile] |
| 31.6 to 100 | 10000 to 100000 | COc1cc(CN2CCOCC2)ccc1-n1cnc(Nc2cnc(C#N)cn2)c1 [Example 173, 5-((1-(2-Methoxy-4-(morpholinomethyl)phenyl)-1H-imidazol-4-yl)amino)pyrazine-2-carbonitrile] |
| 10 to 31.6 | 10000 to 100000 | CCNCc1ccc(-n2cnc(Nc3cnc(C#N)cn3)c2)c(OC)c1 [Example 170, 5-((1-(4-((Ethylamino)methyl)-2-methoxyphenyl)-1H-imidazol-4-yl)amino)pyrazine-2-carbonitrile] |
